In brackets after ≈: the same amount, converted by molar mass. Where two headings read alike, the source gives them in different places. Bounds are passed on as bounds.

Holding throughout (assay): MIC, broth microdilution
A general note: Dilution methods test growth across graded concentrations, often in twofold steps.

One assay deals with S. pneumoniae. Type of assay: cell-based, Streptococcus pneumoniae. Here is the method:
(§1) MICs were determined by the microdilution method according to the Clinical and Laboratory Standards Institute guidelines. […] Finally, the 96-well plates were incubated at 37 °C for 16–20 h to observe and record the results. […] The assay for MICs was replicated at least three times.

For the next assay, the system named is H. influenzae. The assay is classed as cell-based, Haemophilus influenzae. Here is the method:
as §1

The next assay relates to S. aureus. Type of assay: cell-based, Staphylococcus aureus. Here is the method: as §1
For another assay, the system named is S. pyogenes. The assay is classed as cell-based, Streptococcus pyogenes. The procedure:
as §1

Setting [1] is: Streptococcus pneumoniae, ATCC49619, S. pneumoniae ATCC49619, Ery-S, read-out: MIC.
[2] abbreviates: Streptococcus pneumoniae, S. pneumoniae 07P390, c-ermB, read-out: MIC.
Where [3] appears, read: Streptococcus pneumoniae, S. pneumoniae PU09, mef, read-out: MIC.
Setting [4] is: Haemophilus influenzae, ATCC49247, H. influenzae ATCC49247, Azi-S, read-out: MIC.
The mark [5] stands for this setting: Staphylococcus aureus, S. aureus 15B196, c-ermB, read-out: MIC.
Where [6] appears, read: Staphylococcus aureus, S. aureus PU32, i-ermA, read-out: MIC.
The mark [7] stands for this setting: Streptococcus pyogenes, S. pyogenes 12-206, c-ermTR, read-out: MIC.
[8] abbreviates: Streptococcus pyogenes, S. pyogenes 01-968, i-ermTR (Table S5), read-out: MIC.
Setting [9] is: Streptococcus pyogenes, S. pyogenes 12-206, c-ermB (Table S5), read-out: MIC.

As for `CCC1OC(=O)C(C)C(OC(=O)NCCCCCCCc2ccc3c(=O)c(C(=O)O)cn(C4CC4)c3c2)C(C)C(OC2OC(C)CC(N(C)C)C2O)C(C)(OC)CC(C)C(=NOC)C(C)C2OC(=O)OC12C` (centres unmarked) [61c], the MIC in the assay on S. pneumoniae (setting [1]) was not above 0.008 µg/mL; in the assay on S. pneumoniae (setting [2]), 0.5 µg/mL (≈ 0.493 µM); in the assay with S. pneumoniae (setting [3]), not above 0.008 µg/mL; with H. influenzae (setting [4]), more than 256 µg/mL; in the assay on S. aureus (setting [5]) it was 64 µg/mL (≈ 63.2 µM); in the assay on S. aureus (setting [6]) it was 8 µg/mL (≈ 7.9 µM). The MIC with S. pyogenes (setting [7]) was found to be 2 µg/mL (≈ 1.97 µM).
`CCC1OC(=O)C(C)C(OC(=O)NCCCCCCCc2ccc3c(=O)c(C(N)=O)cn(C4CC4)c3c2)C(C)C(OC2OC(C)CC(N(C)C)C2O)C(C)(OC)CC(C)C(=NOC)C(C)C2OC(=O)OC12C` (centres unmarked) [61d]: the MIC in the assay on S. pneumoniae (setting [1]) was 0.12 µg/mL (≈ 0.119 µM); in the assay with S. pneumoniae (setting [2]), 16 µg/mL (≈ 15.8 µM); in the assay with S. pneumoniae (setting [3]) it was 1 µg/mL (≈ 0.988 µM); in the assay on H. influenzae (setting [4]), more than 256 µg/mL; in the assay on S. aureus (setting [5]) it was more than 256 µg/mL; in the assay with S. aureus (setting [6]), 64 µg/mL (≈ 63.2 µM). For the same compound, in the assay on S. pyogenes (setting [7]), the MIC amounted to 16 µg/mL (≈ 15.8 µM).
For `CC[C@H]1OC(=O)[C@H](C)[C@@H](OC(=O)NCCCCCCCCc2ccc3c(c2)c(=O)c(C(N)=O)cn3C2CC2)[C@H](C)[C@@H](O[C@@H]2O[C@H](C)C[C@H](N(C)C)[C@H]2O)[C@](C)(OC)C[C@@H](C)C(=NOC)[C@H](C)[C@H]2OC(=O)O[C@@]21C` [62b], the MIC in the assay with S. pneumoniae (S. pneumoniae 07P390, c-ermB) was 32 µg/mL (≈ 31.2 µM); against S. pneumoniae (S. pneumoniae ATCC49619, Ery-S) it was 0.5 µg/mL (≈ 0.487 µM); with S. pneumoniae (S. pneumoniae PU09, mef), 4 µg/mL (≈ 3.9 µM); in the assay on H. influenzae (H. influenzae ATCC49247, Azi-S) it was more than 256 µg/mL; in the assay with S. aureus (S. aureus 15B196, c-ermB) it was more than 256 µg/mL; in the assay with S. aureus (S. aureus PU32, i-ermA), 128 µg/mL (≈ 125 µM). This compound gave an MIC in the assay with S. pyogenes (S. pyogenes 12-206, c-ermTR) of 16 µg/mL (≈ 15.6 µM).
For the compound `CC[C@H]1OC(=O)[C@H](C)[C@@H](OC(=O)NCCCCCCCCCc2ccc3c(c2)c(=O)c(C(N)=O)cn3C2CC2)[C@H](C)[C@@H](O[C@@H]2O[C@H](C)C[C@H](N(C)C)[C@H]2O)[C@](C)(OC)C[C@@H](C)C(=NOC)[C@H](C)[C@H]2OC(=O)O[C@@]21C` [63b], the MIC in the assay with S. pneumoniae (S. pneumoniae 07P390, c-ermB) was 16 µg/mL (≈ 15.4 µM); with S. pneumoniae (S. pneumoniae ATCC49619, Ery-S) it was 2 µg/mL (≈ 1.92 µM); with S. pneumoniae (S. pneumoniae PU09, mef) it was 4 µg/mL (≈ 3.85 µM); against H. influenzae (H. influenzae ATCC49247, Azi-S), more than 256 µg/mL; with S. aureus (S. aureus 15B196, c-ermB), more than 256 µg/mL; against S. aureus (S. aureus PU32, i-ermA), 64 µg/mL (≈ 61.5 µM). The compound further showed an MIC against S. pyogenes (S. pyogenes 12-206, c-ermTR) of 16 µg/mL (≈ 15.4 µM).
As to `CC[C@H]1OC(=O)[C@H](C)[C@@H](OC(=O)NCCCCCCC#Cc2ccc3c(=O)c(C(=O)O)cn(C4CC4)c3c2)[C@H](C)[C@@H](O[C@@H]2O[C@H](C)C[C@H](N(C)C)[C@H]2O)[C@](C)(OC)C[C@@H](C)C(=O)[C@H](C)[C@H]2NC(=O)O[C@@]21C` [88c], the MIC was not above 0.008 µg/mL with S. pneumoniae (setting [1]); not above 0.008 µg/mL with S. pneumoniae (setting [3]); 4 µg/mL (≈ 4.03 µM) against S. aureus (S. aureus 15B196, c-ermB); 1 µg/mL (≈ 1.01 µM) with S. aureus (S. aureus PU32, i-ermA); 8 µg/mL (≈ 8.05 µM) in the assay on S. aureus (setting [5]); 2 µg/mL (≈ 2.01 µM) in the assay on S. aureus (setting [6]). Further, the MIC in the assay on S. pyogenes (S. pyogenes 12-206, c-ermTR) amounted to 1 µg/mL (≈ 1.01 µM); with S. pyogenes (setting [7]) it was 0.5 µg/mL (≈ 0.503 µM).
In the case of `CC[C@H]1OC(=O)[C@H](C)[C@@H](OC(=O)NCCCCCCC#Cc2ccc3c(=O)[nH]cnc3c2)[C@H](C)[C@@H](O[C@@H]2O[C@H](C)C[C@H](N(C)C)[C@H]2O)[C@](C)(OC)C[C@@H](C)C(=O)[C@H](C)[C@H]2NC(=O)O[C@@]21C` [88k], the MIC against S. pneumoniae (S. pneumoniae 07P390, c-ermB) is 128 µg/mL (≈ 141 µM); in the assay on S. pneumoniae (S. pneumoniae ATCC49619, Ery-S) it was 0.06 µg/mL (≈ 0.0659 µM); in the assay on S. pneumoniae (S. pneumoniae PU09, mef), 0.5 µg/mL (≈ 0.549 µM); against H. influenzae (H. influenzae ATCC49247, Azi-S), 64 µg/mL (≈ 70.3 µM); in the assay on S. pyogenes (S. pyogenes 01-968, i-ermTR (Table S5)) it was 1 µg/mL (≈ 1.1 µM); against S. pyogenes (S. pyogenes 12-206, c-ermB (Table S5)) it was 32 µg/mL (≈ 35.2 µM).
Take `CC[C@H]1OC(=O)[C@H](C)[C@@H](OC(=O)NCCCCCCC#Cc2ccc3c(=O)n(CC(=O)O)cnc3c2)[C@H](C)[C@@H](O[C@@H]2O[C@H](C)C[C@H](N(C)C)[C@H]2O)[C@](C)(OC)C[C@@H](C)C(=O)[C@H](C)[C@H]2NC(=O)O[C@@]21C` [88l]: the MIC with S. pneumoniae (setting [1]) was 0.25 µg/mL (≈ 0.258 µM); in the assay with S. pneumoniae (setting [2]), 256 µg/mL (≈ 264 µM); in the assay on S. pneumoniae (setting [3]), 0.25 µg/mL (≈ 0.258 µM); with H. influenzae (setting [4]), 256 µg/mL (≈ 264 µM); with S. pyogenes (setting [8]), 8 µg/mL (≈ 8.26 µM); in the assay with S. pyogenes (setting [9]), 256 µg/mL (≈ 264 µM). Moreover, the MIC with S. pyogenes (setting [7]) was 256 µg/mL (≈ 264 µM).
As to `CC[C@H]1OC(=O)[C@H](C)[C@@H](OC(=O)NCCCCCCC#Cc2ccc3c(=O)c4c(O)cc(O)cc4oc3c2)[C@H](C)[C@@H](O[C@@H]2O[C@H](C)C[C@H](N(C)C)[C@H]2O)[C@](C)(OC)C[C@@H](C)C(=O)[C@H](C)[C@H]2NC(=O)O[C@@]21C` [88m], the MIC in the assay on S. pneumoniae (setting [1]) amounted to 4 µg/mL (≈ 4.03 µM); in the assay on S. pneumoniae (setting [2]), 16 µg/mL (≈ 16.1 µM); in the assay on S. pneumoniae (setting [3]), 1 µg/mL (≈ 1.01 µM); with H. influenzae (setting [4]) it was 16 µg/mL (≈ 16.1 µM); in the assay with S. pyogenes (setting [8]), 16 µg/mL (≈ 16.1 µM); in the assay on S. pyogenes (setting [9]), 32 µg/mL (≈ 32.3 µM). Also, the MIC in the assay with S. pyogenes (setting [7]) was 32 µg/mL (≈ 32.3 µM).
